Assay [1] addresses Human immunodeficiency virus type 1 protease (Human immunodeficiency virus 1, UniProt Q72874). Kind of assay: Compound was evaluated for the inhibitory activity towards HIV protease.
The subject of assay [2] is MT4. Kind of assay: Compound was evaluated for the antiviral activity in HIV-I IIIB infected MT-4 cells assay. In kind it is functional, cell-based. To be noted: Homo sapiens.
Assay [3] can be described thus: Ratio of compound cytotoxic concentration (CC50) to that of antiviral activity (EC50). The assay is classed as functional.
Assay [4] relates to MT4. Nature of the assay: Cytotoxic concentration was measured in HIV-I IIIB infected MT-4 cells assay. In kind it is functional. The note with it: Homo sapiens.

Broadly, the IC50 is the midpoint of a concentration-inhibition curve. Read a low IC50 as higher potency. As usually defined, the EC50 is the concentration giving half of the maximal effect. A higher EC50 goes with a less potent agent. In general, CC50 refers to the concentration that lowers cell viability or growth by half. Higher therefore signals better tolerance by the cells. As to `CCCC1(CCc2ccccc2)OC(=O)C(C(CC)c2cccc(NS(=O)(=O)c3ccc(N)cn3)c2)=C(O)O1` (stereo not given), in assay [1], the IC50 worked out at 0.013 µM. The EC50 in the assay on MT4 [2] was > 70 µM. For the same compound, the SI in assay [3] was <1. The CC50 in the assay with MT4 [4] is 70 µM.

`CCCC1(CCc2ccccc2)OC(=O)C(C(CC)c2cccc(NS(=O)(=O)c3ccc(C#N)cn3)c2)=C(O)O1` (stereo not given): in assay [1], the IC50 came to 0.003 µM. A half-maximal response in the assay with MT4 [2] (EC50) required 11.4 µM. Moreover, the SI in assay [3] amounted to 6.77. For the same compound, it took 77 µM to reach half-maximal cytotoxicity in the assay with MT4 [4] (CC50).

As to `CCCC1(CCc2ccccc2)OC(=O)C(C(CC)c2cccc(NS(=O)(=O)c3ccc([N+](=O)[O-])cn3)c2)=C(O)O1` (stereo not given), in assay [1], half-maximal inhibition (IC50) was put at 0.065 µM. Moreover, in the assay on MT4 [2], the EC50 was > 14.8 µM. The SI in assay [3] is listed as <1. Further, half-maximal cytotoxicity in the assay on MT4 [4] (CC50) was put at 14.8 µM.

`CCCC1(CCc2ccccc2)OC(=O)C(C(CC)c2cccc(NS(=O)(=O)c3ccc(C(F)(F)F)cn3)c2)=C(O)O1` (stereo not given) had a half-maximal inhibitory concentration (IC50) in assay [1] of 0.01 µM. The compound further came in with an EC50 with MT4 [2] of 0.96 µM. Besides, in assay [3], the SI was 65.69. Moreover, it took 63 µM to reach half-maximal cytotoxicity with MT4 [4] (CC50).

Compound `CCCC1(CCc2ccccc2)OC(=O)C(C(CC)c2cccc(NS(=O)(=O)c3ccc(C#N)cc3)c2)=C(O)O1` (stereo not given) showed an IC50 in assay [1] of 0.015 µM. For the same compound, in the assay on MT4 [2], the EC50 is > 66.5 µM. In addition, the SI in assay [3] is listed as <1. Besides, the midpoint of cytotoxicity with MT4 [4], the CC50, lay at 66.5 µM.

In assay [1], `CCCC1(CCc2ccccc2)OC(=O)C(C(CC)c2cccc(NS(=O)(=O)c3ccccn3)c2)=C(O)O1` (stereo not given) returned an IC50 of 0.013 µM. The EC50 in the assay with MT4 [2] was 86.7 µM. Moreover, the SI in assay [3] was >2.05. Also, the cytotoxic concentration (CC50) with MT4 [4] was > 178 µM.

`CCC[C@]1(CCc2ccccc2)OC(=O)C([C@H](CC)c2cccc(NS(=O)(=O)c3ccc(C(F)(F)F)cn3)c2)=C(O)O1` (racemic) displayed an IC50 in assay [1] of 0.05 µM.

The record behind these values is ChEMBL document CHEMBL1132826, “6-Hydroxy-1,3-dioxin-4-ones as non-peptidic HIV protease inhibitors” (Bioorg Med Chem Lett, 2000).
